According to patent publication US10030016B2 (Sunesis Pharmaceuticals, Inc., priority 2009, dated 2018):
Structures can show the parent of a compound that is named as a salt. Where two headings read alike, the source gives them in different places.

What was measured:
[1] = tested on: phospho-akt (Thr308) in PC-3 cells; test: Inhibition of phospho-akt (Thr308) in PC-3 cells, MSD phospho-akt 308 ELISA kit; assay type: cell-based; conditions: Homo sapiens, 2 hours, no serum, read-out: EC50
Summary of the method: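 PC-3 cells (15,000/well, overnight in 10% FBS medium) treated 2 h with three-fold diluted compounds in serum-free medium; DMSO high and 5 μM wortmannin low controls. Lysates captured on BSA-blocked MSD plates overnight at 4 °C, then 1 h antibody detection at RT; phospho-Akt Thr308 read by MSD electrochemiluminescence.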

PDK1 = PDK1 (Homo sapiens (Human), UniProt O15530); test: PDK1 kinase assay (coupled PDK1/AKT/FAM-crosstide assay, IMAP fluorescence polarization); assay type: biochemical
Summary of the method: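 Coupled cascade: 0.75 nM PDK1 (51-359) → 10 nM AKT2 (140-467-PIFtide) → 100 nM FAM-crosstide. ATP 40 μM, 25° C, 30 min. IMAP FP (ex 485/em 530), 2 h binding. ΔmP vs conc, 4-param fit.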

[2] = inhibition of P308 Akt in PC-3 cells using MSD
[3] = inhibition of phospo-PDK1 in vitro
[4] = inhibition of P308 Akt in PC-3 cells, MSD

Sequence of PDK1 (O15530 51-359): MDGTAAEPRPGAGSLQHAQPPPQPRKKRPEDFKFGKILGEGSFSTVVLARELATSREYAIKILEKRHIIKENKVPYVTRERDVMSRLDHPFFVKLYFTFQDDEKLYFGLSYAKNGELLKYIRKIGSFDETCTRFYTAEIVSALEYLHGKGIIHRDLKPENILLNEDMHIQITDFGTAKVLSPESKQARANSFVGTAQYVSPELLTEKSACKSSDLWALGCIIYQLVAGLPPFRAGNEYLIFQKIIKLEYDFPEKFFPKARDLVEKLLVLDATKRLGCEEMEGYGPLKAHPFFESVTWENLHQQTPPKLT

Structure (SMILES) | EC50 [1, 2] [µM] | IC50 (PDK1; inhibition of PDK1 in vitro) [µM] | IC50 (PDK1; [3]) [µM] | EC50 [1, 4] [µM] | other results
O=C(Nc1ccc(F)c(F)c1)c1cccnc1NCc1cccc(-c2c[nH]c3ncccc23)c1 [Example 1.14, N-(3,4-difluorophenyl)-2-{[3-(1H-pyrrolo[2,3-b]pyridin-3-yl)benzyl]amino}pyridine-3-carboxamide] |  |  | 0.1 to 1 |  | EC50 ([1]; PC-3, 2 h, inhibition of P308 Akt in PC-3 cells, MSD): 1 to 10 µM
C[C@@H](c1ccc(F)c(F)c1)n1cnc2c(C#N)cnc(NCc3ccc(-c4ccc5ncnc(N)c5c4)s3)c2c1=O [Ex. 7.25, (S)-5-(((5-(4-aminoquinazolin-6-yl)thiophen-2-yl)methyl)amino)-3-(1-(3,4-difluorophenyl)ethyl)-4-oxo-3,4-dihydropyrido[4,3-d]pyrimidine-8-carbonitrile] |  |  | < 0.1 | < 1 | 
C[C@H](NC(=O)c1cccnc1NCc1ccc(-c2ccc3ncc4ncn(C)c4c3c2)s1)c1ccc(F)c(F)c1 [Example 2.25, (S)-N-(1-(3,4-difluorophenyl)ethyl)-2-(((5-(1-methyl-1H-imidazo[4,5-c]quinolin-8-yl)thiophen-2-yl)methyl)amino)nicotinamide] |  |  | < 0.1 | < 1 | 
COCC#Cc1cnc(NCc2ccc(-c3ccc4ncnc(N)c4c3)s2)c(C(=O)N[C@@H](C)c2ccc(F)c(F)c2)n1 [Ex. 10.8, 3-({[5-(4-aminoquinazolin-6-yl)thiophen-2-yl]methyl}amino)-N-[(1S)-1-(3,4-difluorophenyl)ethyl]-6-(3-methoxyprop-1-yn-1-yl)pyrazine-2-carboxamide] |  |  | 0.1 to 1 | < 1 | 
CC(C)Oc1cc(CNc2ncccc2C(=O)NC2CC2)cc(-c2c[nH]c3ncc(C(=O)NC4CC4)cc23)c1 [Example 4.1.7, N-cyclopropyl-3-[3-({[3-(cyclopropylcarbamoyl)pyridin-2-yl]amino}methyl)-5-(propan-2-yloxy)phenyl]-1H-pyrrolo[2,3-b] pyridine-5-carboxamide] |  |  | 1 to 5 | 1 to 10 | 
C[C@H](NC(=O)c1cccnc1NCc1ccc(-c2ccc3ncc4c(c3c2)n(C)c(=O)n4C)s1)c1ccc(F)cc1 [Example 2.17, (S)-2-(((5-(1,3-dimethyl-2-oxo-2,3-dihydro-1H-imidazo(4,5-c]quinolin-8-yl)thiophen-2-yl)methyl)amino)-N-(1-(4-fluoro-phenyl)ethyl)nicotinamide] |  |  | > 5 | > 10 | 
CCC(C)NS(=O)(=O)c1cnc(NCc2ccc(-c3ccc4ncnc(N)c4c3)s2)c(C(=O)NCc2ccc(F)c(F)c2)c1 (stereo not shown) [Example 8.7.10, 2-({[5-(4-aminoquinazolin-6-yl)thiophen-2-yl]methyl}amino)-5-(butan-2-ylsulfamoyl)-N-(3,4-difluorobenzyl)pyridine-3-carboxamide] |  |  | 0.1 to 1 | 1 to 10 | 
CCC(=O)Nc1cnc(NCc2ccc(-c3ccc4ncnc(N)c4c3)s2)c(C(=O)NCc2ccc(F)c(F)c2)c1 [Example 8.5.2, 2-({[5-(4-aminoquinazolin-6-yl)thiophen-2-yl]methyl}amino)-N-(3,4-difluorobenzyl)-5-(propanoylamino)pyridine-3-carboxamide] |  |  | < 0.1 | 1 to 10 | 
N#Cc1cnc(NCc2ccc(-c3ccc4ncnc(N)c4c3)s2)c(C(=O)NCc2ccc(F)c(F)c2)n1 [Example 3.80, 3-(((5-(4-aminoquinazolin-6-yl)thiophen-2-yl)methyl)amino)-6-cyano-N-(3,4-difluorobenzyl)pyrazine-2-carboxamide (TFA salt)] |  |  | 0.1 to 1 | < 1 | 
CC(C)Oc1cc(CNc2ncccc2C(=O)N(C)c2cccc(F)c2)cc(-c2c[nH]c3ncc(C(=O)NC4CC4)cc23)c1 [Example 4.1.8, N-cyclopropyl-3-{3-[({3-[(3-fluorophenyl)(methyl)carbamoyl]pyridin-2-yl}amino)methyl]-5-(propan-2-yloxy)phenyl}-1H-pyrrolo[2,3-b] pyridine-5-carboxamide] |  |  | > 5 | 1 to 10 | 
C[C@H](NC(=O)c1cccnc1NCc1ccc(-c2ccc3ncnc(N4CC(CO)C4)c3c2)s1)c1ccc(F)c(F)c1 [Example 4.38] |  |  | < 0.1 | 1 to 10 | 
Nc1ncnc2ccc(-c3ccc(CNc4nccnc4C(=O)NCc4ccc(F)cc4)s3)cc12 [Example 3.68, 3-({[5-(4-aminoquinazolin-6-yl)thiophen-2-yl]methyl}amino)-N-(4-fluorobenzyl) pyrazine-2-carboxamide (TFA salt)] |  |  | < 0.1 | 1 to 10 | 

Further lines, with some results ahead:

EC50 [1, 2] [µM] | IC50 (PDK1; inhibition of PDK1 in vitro) [µM] | IC50 (PDK1; [3]) [µM] | EC50 [1, 4] [µM] | Structure (SMILES) | other results
> 10 | > 5 |  |  | C[C@H](NC(=O)c1cc(C#N)cnc1NCc1ccc(-c2ccc3n[nH]c(=O)n3c2)cc1)c1ccc(F)cc1 [Example 145, (S)-5-cyano-N-(1-(4-fluorophenyl)ethyl)-2-(4-(3-oxo-2,3-dihydro-[1,2,4]triazolo[4,3-a]pyridin-6-yl)benzyl-amino)nicotinamide] | 
 | 1 to 5 |  |  | Cc1cccc(Cl)c1NC(=O)c1cc(C(F)(F)F)cnc1NCc1ccc(-c2cnc3[nH]nc(N)c3c2)cc1 [Example 438, 2-(4-(3-amino-1H-pyrazolo[3,4-b]pyridin-5-yl)benzylamino)-N-(2-chloro-6-methyl-phenyl)-5-(trifluoro-methyl)nicotinamide] | EC50 ([1]; PC-3, 2 h, inhibition of P308 Akt in PC-3 cells using MSD): > 10 µM
< 1 | < 0.1 |  |  | Nc1n[nH]c2ncc(-c3ccc(CNc4ncc(C(F)(F)F)cc4C(=O)Nc4cccc(F)c4)cc3)cc12 [Example 262, 2-(4-(3-amino-1H-pyrazolo [3,4-b]pyridin-5-yl)benzylamino)-N-(3-fluorophenyl)-5-(trifluoromethyl) nicotinamide] | 
1 to 10 | 0.1 to 1 |  |  | Nc1n[nH]c2ncc(-c3ccc(CNc4ncc(C(F)(F)F)cc4C(=O)NCC4CC4)cc3)cc12 [Example 272, 2-(4-(3-amino-1H-pyrazolo [3,4-b]pyridin-5-yl)benzylamino)-N-(cyclopropylmethyl)-5-(trifluoromethyl) nicotinamide] | 
 |  | < 0.1 | < 1 | C[C@H](NC(=O)c1cc(C#N)cnc1NCc1ccc(-c2ccc3ncnc(N)c3c2)s1)c1ccc(F)cc1 [Example 8.8.3, 2-({[5-(4-aminoquinazolin-6-yl)thiophen-2-yl]methyl}amino)-5-cyano-N-[(1S)-1-(4-fluorophenyl)ethyl] pyridine-3-carboxamide] | 
< 1 | < 0.1 |  |  | Nc1n[nH]c2ncc(-c3ccc(CNc4ncc(C(F)(F)F)cc4C(=O)Nc4ccc(F)cn4)cc3)cc12 [Example 59, 2-(4-(3-amino-1H-pyrazolo[3,4-b]pyridin-5-yl)benzylamino)-N-(5-fluoropyridin-2-yl)-5-(trifluoromethyl)nicotinamide] | 
< 1 | < 0.1 |  |  | C[C@H](NC(=O)c1cc(C#N)cnc1N[C@H](C)c1ccc(-c2c[nH]c3ncnc(N)c23)cc1)c1ccc(F)cc1 [Example 432, 2-{(R)-1-[4-(4-Amino-7H-pyrrolo[2,3-d]pyrimidin-5-yl)-phenyl]-ethylamino}-5-cyano-N-[(S)-1-(4-fluoro-phenyl)-ethyl]-nicotinamide] | 
> 10 | 1 to 5 |  |  | CNc1ncc2cc(O[C@@H](C)CNc3ncc(C#N)cc3C(=O)N[C@@H](C)c3ccc(F)cc3)ccc2n1 [Example 253, 5-cyano-N-((S)-1-(4-fluorophenyl)ethyl)-2-((S)-2-(2-(methylamino)quinazolin-6-yloxy)propylamino)nicotinamide] | 
1 to 10 | < 0.1 |  |  | C[C@H](NC(=O)c1cc(C#N)cnc1NCc1ccc(-c2cnc(N)c(C(=O)N3CCNCC3)n2)cc1)c1ccc(F)cc1 [Example 221, 2-{4-[5-Amino-6-(piperazine-1-carbonyl)-pyrazin-2-yl]-benzylamino}-5-cyano-N-[(S)-1-(4-fluoro-phenyl)-ethyl]-nicotinamide] | 
< 1 | < 0.1 |  |  | Cc1nc2cc(-c3ccc(CNc4ncc(C#N)cc4C(=O)N[C@@H](C)c4ccc(F)cc4)cc3)cnc2[nH]1 [Example 138, (S)-5-cyano-N-(1-(4-fluorophenyl)ethyl)-2-(4-(2-methyl-3H-imidazo[4,5-b]pyridin-6-yl)benzylamino) nicotinamide] | 
1 to 10 | < 0.1 |  |  | CCCn1cc(-c2ccc(CNc3ncc(C(F)(F)F)cc3C(=O)Nc3ccc(F)cc3)cc2)c2c(N)ncnc21 [Example 429, 2-(4-(4-amino-7-propyl-7H-pyrrolo[2,3-d]pyrimidin-5-yl)benzylamino)-N-(4-fluorophenyl)-5-(trifluoromethyl)nicotinamide] | 
< 1 | < 0.1 |  |  | C[C@H](NC(=O)c1cc(C#N)cnc1NCc1ccc(-c2cnc(N)cn2)cc1)c1ccc(F)cc1 [Example 120, (S)-2-(4-(5-amino-pyrazin-2-yl)benzylamino)-5-cyano-N-(1-(4-fluorophenyl)ethyl) nicotinamide] | 
> 10 | 1 to 5 |  |  | C[C@H](NC(=O)c1nc(C#N)cnc1N[C@@H](CO)c1ccc(-c2cnc3[nH]nc(N)c3c2)cc1)c1ccc(F)c(F)c1 [Example 351, 3-((R)-1-(4-(3-amino-1H-pyrazolo[3,4-b]pyridin-5-yl)phenyl)-2-hydroxy-ethylamino)-6-cyano-N-((S)-1-(3,4-difluorophenyl)ethyl)pyrazine-2-carboxamide] | 
< 1 | < 0.1 |  |  | COc1cc(-c2ccc(CNc3ncc(C#N)cc3C(=O)N[C@@H](C)c3ccc(F)cc3)cc2)cnc1N [Example 133, (S)-2-(4-(6-amino-5-methoxypyridin-3-yl)benzylamino)-5-cyano-N-(1-(4-fluorophenyl)ethyl)nicotinamide] | 
